Experimental data: US9624211B2, “Anti-cancer compounds” (Board of Regents, The University of Texas System, priority 2013, dated 2017)

These compounds were tested on p27 and p21 protein expression (assay: Immunoblotting of SCF substrates in prostate cancer cells). Conditions: LNCaP prostate cancer cells.
Type: cell-based
Excerpt: Cells were lysed with RIPA buffer in the presence of protease inhibitor cocktail (Roche). The following antibodies were used for immunoblotting analysis: anti-Skp2 (Invitrogen), anti-Xpress (Invitrogen), anti-p27 (BD transduction laboratories), anti-p21 (Santa Cruz), anti-β-actin (Sigma), anti-α-tubulin (Sigma), anti-phospho-Akt (Thr308) (Cell Signaling), anti-phospho-Akt (Ser473) (Cell Signaling), and anti-HA (Convance). For immunohistochemistry, tissues were fixed in 10% formalin and embedded in paraffin in accordance with standard procedures. Sections were stained with anti-Skp2 (Invitrogen), anti-p27 (Epitomics), anti-phosphoAkt (SerS473) (Cell signaling), anti-Glut1 (Abcam), and anti-Ki67 (Abcam). TUNEL staining was performed by using in situ cell death detection kit-POD (Roche).

| Structure (SMILES) | heat shock protein 27 (Hsp27) expression |
| --- | --- |
| NS(=O)(=O)OC[C@@H]1C[C@@H](n2ccc3c(N[C@H]4CCc5ccccc54)ncnc32)C[C@@H]1O [MLN4924, reference compound] | induced expression |

Same assay, conditions: Skp2, Fbw7 and β-TrCP substrates, FIGS. 3E and 11A

| Structure (SMILES) | stabilization/induction of SCF substrates |
| --- | --- |
| NS(=O)(=O)OC[C@@H]1C[C@@H](n2ccc3c(N[C@H]4CCc5ccccc54)ncnc32)C[C@@H]1O [MLN4924, reference compound] | globally induced |

These compounds were tested against T1, Skp1/Skp2 binding interaction (Homo sapiens, UniProt Q13309) (assay: In vitro Skp2-Skp1 binding assay (GST pull-down)). Conditions: amount of intact Skp1/Skp2 remaining after treatment, quantified on western blot/images.
T1 construct: made in house; host or cells: GST-Skp1: E. coli BL21; Skp2: in vitro translation
Procedure: For in vitro GST-Skp1 and Skp2 interaction, GST-Skp1 proteins purified from the bacterial lysates of BL21 competent cells transformed with pGEX-4X1-Skp1 using the Glutathione-Agarose beads according to the manufacturer's standard procedures. The GST-Skp1 proteins bound to glutathione Sepharose beads (Amersham Biosciences) were then incubated with the in vitro translated [35^S]-Skp2 for 2 hours at 4° C. in the interaction buffer with or without compound #25 (20 mM HEPES, PH 7.9, 150 mM KCl. 5 mM EDTA, 0.5 mM DTT, 0.1% (v/v) Nonidet p-40, 0.1% (w/v) BSA, 1 mM PMSF, and 10% Glycerol), washed by the NETN buffer (20 mM Tris, pH 8.0, 100 mM NaCl, 6 mM MgCl2, 1 mM EDTA, 0.5% Nonidet P-40, 1 mM DTT, 8% glycerol, 1 mM PMSF) 4 times, and subjected to 8% SDS-PAGE, followed by autoradiography.
Below are the original lead compound and 11 similar compounds that were tested for their ability to block the Skp1/Skp2 binding interaction in an in vitro assay. The quantification was made on western blot/images, and the percentages represent the amount of intact Skp1/Skp2 remaining after treatment. In vitro binding assays were performed. For in vitro GST-Skp1 and Skp2 interaction, GST-Skp1 proteins purified from the bacterial lysates of BL21 competent cells transformed with pGEX-4X1-Skp1 using the Glutathione-Agarose beads were performed according to the manufacturer's standard procedures. The GST-Skp1 proteins bound to glutathione Sepharose beads (Amersham Biosciences) were then incubated with the in vitro translated [35^S]-Skp2 for 2 hours at 4° C. in the interaction buffer with or without lead compound and 11 similar compounds (20 mM HEPES, PH 7.9, 150 mM KCl. 5 mM EDTA, 0.5 mM DTT, 0.1% (v/v) Nonidet p-40, 0.1% (w/v) BSA, 1 mM PMSF, and 10% Glycerol), washed by the NETN buffer (20 mM Tris, pH 8.0, 100 mM NaCl, 6 mM MgCl2, 1 mM EDTA, 0.5% Nonidet P-40, 1 mM DTT, 8% glycerol, 1 mM PMSF) 4 times, and subjected to 8% SDS-PAGE, followed by autoradiography. The data presented in Table 1 below was obtained using the Skp1/Skp2 binding affinity assay. The quantification percentage results listed below are based on the western blot results.

T1 sequence (Q13309 whole entry): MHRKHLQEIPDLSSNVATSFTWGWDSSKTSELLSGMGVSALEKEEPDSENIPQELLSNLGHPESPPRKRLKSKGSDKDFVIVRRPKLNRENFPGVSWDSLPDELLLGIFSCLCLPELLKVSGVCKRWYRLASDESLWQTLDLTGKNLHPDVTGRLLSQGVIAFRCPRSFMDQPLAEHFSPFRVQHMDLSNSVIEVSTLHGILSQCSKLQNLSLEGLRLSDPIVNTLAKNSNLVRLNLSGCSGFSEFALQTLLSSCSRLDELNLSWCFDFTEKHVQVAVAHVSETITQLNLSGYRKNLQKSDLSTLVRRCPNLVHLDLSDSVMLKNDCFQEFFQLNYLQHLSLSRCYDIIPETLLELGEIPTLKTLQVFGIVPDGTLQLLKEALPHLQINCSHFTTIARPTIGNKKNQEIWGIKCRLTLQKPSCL

| Structure (SMILES) | Normalized w/ vehicle treatment |
| --- | --- |
| CCc1cc2c(=O)c(-c3nc4ccccc4s3)coc2c(CN2CCOCC2)c1O [compound 354] | 10% |
| COc1ccccc1C(=O)Oc1ccc2c(=O)c(-c3nc4ccccc4s3)coc2c1 [compound 837] | 8% |
| CN(C)Cc1c(O)ccc2cc(-c3nc4ccccc4o3)c(=O)oc12 [compound 820] | 10% |
| Cn1c(-c2cc3ccc(O)c(CN4CCCCCC4)c3oc2=O)nc2ccccc21 [compound 580] | 8% |
| O=c1oc2c(CN(CCO)CCO)c(O)ccc2cc1-c1nc2ccccc2s1 [compound 719] | 80% |
| Cn1c(-c2cc3ccc(O)c(CN4CCCC4)c3oc2=O)nc2ccccc21 [compound 343] | 35% |
| CCc1cc2c(=O)c(-c3nc4ccccc4s3)coc2cc1O [compound 378] | 100% (no effect) |
| CCc1cc2c(=O)c(-c3nc4ccccc4s3)coc2c(CN(C)C)c1O [compound 653] | 8% |
| O=c1c(-c2nc3ccccc3s2)coc2cc(O)ccc12 [compound 684] | 75% |
| Nc1oc2cc(O)ccc2c(=O)c1-c1nc2ccccc2s1 [compound 649] | 8% |
| Cn1c(-c2cc3ccc(O)c(CN4CCCCC4)c3oc2=O)nc2ccccc21 [compound 435] | 40% |

What follows are compounds tested against T2, FBW7 (Homo sapiens, UniProt Q969H0) (assay: In vivo ubiquitination assay, FBW7 substrates). Conditions: in the presence of proteasome inhibitor.
T2 construct: expressed in transfected cells; host or cells: 293T
Type: cell-based
Procedure: In vivo and in vitro ubiquitination assays were performed as described with modification (Lin et al., 2009; Yang et al., 2009). For in vitro ubiquitination assay, recombinant GST-Akt proteins were expressed, purified and eluted from the bacterial lysates of BL21 competent cells. Flag-Skp2 SCF complex were expressed in 293T cells, immunoprecipitated by anti-Flag antibody, and eluted from Protein A/G beads using Flag peptides according to manufacturers' standard procedures. Purified GST-Akt and Flag-SCF proteins were incubated for 3 h at 37° C. in the absence and presence of Skp2 inhibitor. After incubation, protein mixtures were diluted in E1A Buffer and the supernatant fluid was precleared with Protein A/G beads for 1 h, and immunoprecipitated overnight with anti-Flag antibody, after which Protein A/G beads were added for an additional 1 h. Beads were washed 4 times with E1A Buffer. Proteins were eluted in SDS-sample buffer and subjected to immunoblotting analysis. For in vivo ubiquitination assay, 293T cells were transfected with the indicated plasmids and cultured in the absence or presence of Skp2 inhibitor for 48 h. 6 h before harvest, cells were cultured in the presence of MG132. After cell harvest, cells were lysed by the denatured buffer (6M guanidine-HCl, 0.1M Na2HPO4/NaH2PO4, 10 mM imidazole). […]

T2 sequence (Q969H0 whole entry, species assumed): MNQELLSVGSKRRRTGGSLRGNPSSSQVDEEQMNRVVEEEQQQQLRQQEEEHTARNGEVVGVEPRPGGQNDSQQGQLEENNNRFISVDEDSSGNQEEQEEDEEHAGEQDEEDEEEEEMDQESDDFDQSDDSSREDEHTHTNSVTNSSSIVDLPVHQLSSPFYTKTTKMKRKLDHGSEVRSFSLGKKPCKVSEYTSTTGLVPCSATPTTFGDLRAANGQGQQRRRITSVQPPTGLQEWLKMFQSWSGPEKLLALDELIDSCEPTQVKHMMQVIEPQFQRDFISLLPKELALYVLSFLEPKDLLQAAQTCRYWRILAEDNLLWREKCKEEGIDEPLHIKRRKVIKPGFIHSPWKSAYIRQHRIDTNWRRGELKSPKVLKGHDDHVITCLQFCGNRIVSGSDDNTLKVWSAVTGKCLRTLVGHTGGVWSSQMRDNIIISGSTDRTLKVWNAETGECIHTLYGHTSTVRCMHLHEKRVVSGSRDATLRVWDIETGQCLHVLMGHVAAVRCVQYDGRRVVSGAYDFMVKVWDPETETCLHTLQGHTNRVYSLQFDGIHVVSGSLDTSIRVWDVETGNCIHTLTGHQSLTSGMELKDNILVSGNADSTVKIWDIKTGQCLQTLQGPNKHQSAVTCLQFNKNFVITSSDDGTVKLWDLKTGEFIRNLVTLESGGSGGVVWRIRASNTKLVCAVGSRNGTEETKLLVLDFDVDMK

| Structure (SMILES) | FBW7-mediated ubiquitination (c-Jun, MCL-1) |
| --- | --- |
| NS(=O)(=O)OC[C@@H]1C[C@@H](n2ccc3c(N[C@H]4CCc5ccccc54)ncnc32)C[C@@H]1O [MLN4924, reference compound] | profoundly attenuated |
